Results as given in US20240238323A1, “MODIFIED NUCLEOSIDES AND NUCLEOTIDES ANALOGS AS ANTIVIRAL AGENTS FOR CORONA AND OTHER VIRUSES” (Emory University, priority 2021, published 2024).

What follows are compounds tested on SARS-CoV-2 (assay: microbe, parasite or virus in culture). Conditions: Severe acute respiratory syndrome coronavirus 2, Vero, 48 h, Vero cells; virus yield, 48 h post-infection; read-out: Anti-SARS-COV-2 activity in Vero cells EC50.
Assay type: cell-based
In the case of `Nc1cnn([C@@H]2O[C@H](CO)C(O)C2O)c(=O)n1` (stereo partly drawn), the EC50 is reported as < 10 µM. In the case of `COc1cnn([C@@H]2O[C@H](CO)C(O)C2O)c(=O)n1` (stereo partly drawn), the EC50 is reported as < 10 µM. Compound `Nc1nccc2c1ncn2[C@@H]1O[C@H](CO)C(O)C1O` (stereo partly drawn) has an EC50 of 6 µM. `OC[C@H]1O[C@@H](n2cnc3c(S)ncnc32)C(O)C1O` (stereo partly drawn) gave an EC50 of 11.1 µM. For `CC1(O)C(O)[C@@H](CO)O[C@H]1n1ccc(N)nc1=O` (stereo partly drawn), the EC50 was 9.2 µM. With `CC1(O)C(O)[C@@H](CO)O[C@H]1n1cc(F)c2c(N)ncnc21` (stereo partly drawn) the EC50 was 7.6 µM. In the case of `COc1ncnc2c1c(C(F)(F)F)cn2[C@@H]1O[C@H](CO)C(O)C1(C)O` (stereo partly drawn), the EC50 is reported as < 10 µM. `CC1(F)C[C@@H](CO)O[C@H]1n1ccc(=O)[nH]c1=O` (stereo partly drawn) was tested, and the EC50 was 10 µM. In the case of `[N-]=[N+]=NC1C(O)[C@@H](CO)O[C@H]1n1ccc(=O)[nH]c1=O` (stereo partly drawn), the EC50 is reported as < 10 µM. For `C#CC1C(O)[C@@H](CO)O[C@H]1n1cc(F)c(=O)[nH]c1=O` (stereo partly drawn), the EC50 was < 10 µM. For `[N-]=[N+]=NC1C[C@@H](COC(=O)c2ccccc2)O[C@H]1n1ccc(=O)[nH]c1=O` (stereo partly drawn), the EC50 was 10 µM. With `O=c1ccn([C@@H]2O[C@H](CO)CC2F)c(=O)[nH]1` (stereo partly drawn) the EC50 was < 10 µM. In the case of `NC1C=CN([C@@H]2O[C@H](CO)CC2(Cl)Cl)C(=O)N1` (stereo partly drawn), the EC50 is reported as < 10 µM. With `Nc1ccn([C@@H]2O[C@@](CO)(COC(F)F)[C@@H](O)[C@H]2F)c(=O)n1` the EC50 was < 10 µM. In the case of `Nc1ccn([C@@H]2O[C@@](CO)(C3CCO3)C(O)C2F)c(=O)n1` (stereo partly drawn), the EC50 is reported as < 10 µM. In the case of `C#C[C@]1(CO)O[C@@H](n2cnc3c(N)ncnc32)C(O)C1O` (stereo partly drawn), the EC50 is reported as < 10 µM. For `C#C[C@]1(CO)O[C@@H](N2C=CC(N)NC2=O)[C@H](O)[C@@H]1O` (stereo partly drawn), the EC50 was < 10 µM. In the case of `O=c1ccn([C@@H]2C[C@H](CO)C(O)C2O)c(=O)[nH]1` (stereo partly drawn), the EC50 is reported as < 10 µM. `Nc1nc2c(ncn2[C@@H]2C[C@H](CO)C(O)C2O)c(=O)[nH]1` (stereo partly drawn) was tested, and the EC50 was < 10 µM. With `Nc1ncnc2c1ccn2[C@@H]1C[C@H](CO)C(O)C1O` (stereo partly drawn) the EC50 was < 10 µM. `Nc1ncnc2c1ncn2[C@@H]1C[C@H](CO)C(O)C1O` (stereo partly drawn) was tested, and the EC50 was < 10 µM. Work on `CC(C)C(=O)OC[C@@H]1OC[C@H](n2cnc3c(Cl)nc(Cl)nc32)O1` yielded an EC50 of 2.3 µM. `COc1nc(Cl)nc2c1ncn2[C@H]1CO[C@@H](CO)O1` was tested, and the EC50 was < 10 µM. `Nc1nc(N)c2ncn([C@H]3CO[C@@H](CO)O3)c2n1` showed an EC50 of 10 µM. For `Nc1nc(Cl)nc2c1ncn2[C@H]1CO[C@@H](CO)O1`, the EC50 was > 10 µM. In the case of `OC[C@@H]1OC[C@H](n2cnc3c(Cl)nc(Cl)nc32)O1`, the EC50 is reported as < 10 µM. For `OC[C@@H]1CC[C@H](n2cnc3c(Cl)nc(Cl)nc32)C1`, the EC50 was < 10 µM. For `OC[C@@H]1C=C[C@H](n2cnc3c(Cl)nc(Cl)nc32)C1`, the EC50 was < 10 µM. `Nc1ncnc2c([C@H]3O[C@@H](CO)C(O)C3O)cnn12` (stereo partly drawn) was tested, and the EC50 was < 10 µM. In the case of `Nc1ncnc2c([C@@H]3C[C@H](CO)C(O)C3O)c[nH]c12` (stereo partly drawn), the EC50 is reported as < 10 µM. For `OC[C@H]1C[C@@H](c2c[nH]c3c(O)ncnc23)C(O)C1O` (stereo partly drawn), the EC50 was < 10 µM. In the case of `O=c1[nH]c(=O)n([C@H]2C[C@@H](CO)C(O)C2O)cc1F` (stereo partly drawn), the EC50 is reported as < 10 µM. For `Nc1nc(O)c2[nH]cc([C@@H]3C[C@H](CO)C(O)C3O)c2n1` (stereo partly drawn), the EC50 was < 10 µM. For `OC[C@@H]1O[C@H](n2nnc3c(O)ncnc32)C(O)C1O` (stereo partly drawn), the EC50 was < 10 µM. `Nc1ncnc2c1cnn2[C@H]1O[C@@H](CO)C(O)C1O` (stereo partly drawn) was tested, and the EC50 was < 10 µM. With `OC[C@@H]1O[C@H](n2ncc3c(S)ncnc32)C(O)C1O` (stereo partly drawn) the EC50 was < 10 µM. In the case of `O=c1ccn([C@H]2CC(F)(F)[C@@H](CO)S2)c(=O)[nH]1`, the EC50 is reported as < 10 µM. `CC1(O)C(O)[C@H](n2ccc(NO)nc2=O)S[C@@H]1CO` (stereo partly drawn) showed an EC50 of 1.2 µM. In the case of `CC1(O)C(O)[C@H](n2ccc(N)nc2=O)O[C@@H]1CO` (stereo partly drawn), the EC50 is reported as 0.4 µM. `O=c1nc(NO)ccn1C1CCC(CO)O1` (stereo not drawn) showed an EC50 of 2.5 µM. `O=c1ccn([C@H]2CC[C@@H](CO)O2)c(=O)[nH]1` gave an EC50 of 10 µM. `Nc1ccn([C@H]2CC[C@@H](CO)O2)c(=O)n1` was tested, and the EC50 was < 10 µM. With `O=c1cnn([C@@H]2O[C@H](CO)C(O)C2O)c(=O)[nH]1` (stereo partly drawn) [drawing 46] the EC50 was 0.75 µM. For `C[C@@]1(O)C(O)[C@@H](CO)O[C@H]1n1ncc(=O)[nH]c1=O` (stereo partly drawn) [drawing 50], the EC50 was 10 µM.

Same assay, conditions: Severe acute respiratory syndrome coronavirus 2, Vero, 48 h, read-out: Anti-SARS-COV-2 activity in Vero cells EC50
`CC(C)OC(=O)[C@H](C)N[P@](=O)(OC[C@H]1O[C@@H](n2ncc(=O)[nH]c2=O)C(O)C1O)Oc1ccccc1` (stereo partly drawn) was tested, and the EC50 was < 10 µM. In the case of `CC(C)OC(=O)[C@H](C)N[P@](=O)(OC[C@H]1O[C@@H](n2ncc(=O)[nH]c2=O)[C@](C)(O)C1O)Oc1ccccc1` (stereo partly drawn), the EC50 is reported as 10 µM. `CC(C)OC(=O)[C@H](C)NP(=O)(OC[C@H]1O[C@@H](n2cnc3c(N)ncnc32)C(C)(O)C1O)Oc1ccccc1` (stereo partly drawn) was tested, and the EC50 was < 10 µM. For `CC(C)OC(=O)[C@H](C)N[P@@](=O)(OC[C@H]1O[C@@H](n2ccc(=O)[nH]c2=O)C(F)C1O)Oc1ccccc1` (stereo partly drawn), the EC50 was < 10 µM. `C#C[C@]1(CO[P@@](=O)(N[C@@H](C)C(=O)OC(C)C)Oc2ccccc2)O[C@@H](n2ccc(=O)[nH]c2=O)[C@H](O)[C@@H]1O` was tested, and the EC50 was < 10 µM. In the case of `CC(C)OC(=O)[C@H](C)NP(=O)(OC[C@H]1C[C@@H](n2cnc3c(N)ncnc32)C(O)C1O)Oc1ccccc1` (stereo partly drawn), the EC50 is reported as < 10 µM. In the case of `Nc1nc2c(ncn2[C@H]2CO[C@@H](CO)O2)c(=O)[nH]1`, the EC50 is reported as > 10 µM. For `CCOC(=O)[C@H](C)NP(=O)(OC[C@@H]1OC[C@H](n2cnc3c(OC)nc(N)nc32)O1)Oc1ccccc1` (stereo partly drawn), the EC50 was > 10 µM. With `CC(C)OC(=O)[C@H](C)N[P@](=O)(OC[C@@H]1OC[C@H](n2cnc3c(Cl)nc(Cl)nc32)O1)Oc1ccccc1` the EC50 was > 10 µM. In the case of `CC(C)OC(=O)[C@H](C)NP(=O)(OC[C@@H]1C=C[C@H](n2cnc3c(Cl)nc(Cl)nc32)C1)Oc1ccccc1` (stereo partly drawn), the EC50 is reported as < 10 µM. For `CC(C)OC(=O)[C@H](C)NP(=O)(OC[C@@H]1CC[C@H](n2cnc3c(Cl)nc(Cl)nc32)C1)Oc1ccccc1` (stereo partly drawn), the EC50 was < 10 µM. `CC(C)OC(=O)[C@H](C)NP(=O)(OC[C@H]1O[C@@H](n2ccc(N)nc2=O)C(O)C1(C)O)Oc1ccccc1` (stereo partly drawn) showed an EC50 of 9.3 µM.

Same assay, conditions: Severe acute respiratory syndrome coronavirus 2, Vero, 48 h, read-out: Anti-SARS-COV-2 activity in Vero cells EC90
For `CC(C)OC(=O)[C@H](C)NP(=O)(OC[C@H]1O[C@@H](n2ccc(N)nc2=O)C(O)C1(C)O)Oc1ccccc1` (stereo partly drawn), the EC90 was > 10 µM.

Same assay, conditions: Severe acute respiratory syndrome coronavirus 2; Vero cells; virus yield, 48 h post-infection; read-out: Anti-SARS-COV-2 activity in Vero cells EC90
`Nc1nccc2c1ncn2[C@@H]1O[C@H](CO)C(O)C1O` (stereo partly drawn) was tested, and the EC90 was 15.2 µM. `OC[C@H]1O[C@@H](n2cnc3c(S)ncnc32)C(O)C1O` (stereo partly drawn) showed an EC90 of 23.5 µM. Work on `CC1(O)C(O)[C@@H](CO)O[C@H]1n1ccc(N)nc1=O` (stereo partly drawn) yielded an EC90 of 29.6 µM. `CC1(O)C(O)[C@@H](CO)O[C@H]1n1cc(F)c2c(N)ncnc21` (stereo partly drawn) showed an EC90 of 28.8 µM. `CC(C)C(=O)OC[C@@H]1OC[C@H](n2cnc3c(Cl)nc(Cl)nc32)O1` showed an EC90 of 6.5 µM. `CC1(O)C(O)[C@H](n2ccc(NO)nc2=O)S[C@@H]1CO` (stereo partly drawn) was tested, and the EC90 was 8.7 µM. Work on `CC1(O)C(O)[C@H](n2ccc(N)nc2=O)O[C@@H]1CO` (stereo partly drawn) yielded an EC90 of 3.6 µM. With `O=c1nc(NO)ccn1C1CCC(CO)O1` (stereo not drawn) the EC90 was 83.4 µM. With `O=c1cnn([C@@H]2O[C@H](CO)C(O)C2O)c(=O)[nH]1` (stereo partly drawn) [drawing 46] the EC90 was 2.5 µM.

Same assay, conditions: Vero cells; virus yield, 48 h post-infection; read-out: Anti-SARS-COV-2 activity in Vero cells EC50
`C[C@@]1(O)C(O)[C@@H](CO)O[C@H]1n1ncc(=O)[nH]c1=O` (stereo partly drawn) [drawing 58] was tested, and the EC50 was < 10 µM.

Each compound was assayed against SARS-CoV-2 RdRp complex (nsp12-nsp7-nsp8) (Severe acute respiratory syndrome coronavirus 2, UniProt P0DTD1) (assay: not given). Conditions: concentrations of 1, 10 and 100 μM.
Assay type: biochemical
In the case of `O=c1cnn([C@@H]2O[C@H](CO)C(O)C2O)c(=O)[nH]1` (stereo partly drawn) [drawing 105], the “inhibition of RNA synthesis by RdRp complex” value is reported as “not significantly inhibited”.

Same assay, conditions: concentrations of 250 and 500 μM
`O=c1cnn([C@@H]2O[C@H](CO)C(O)C2O)c(=O)[nH]1` (stereo partly drawn) [drawing 105] was tested, and the “inhibition of RNA synthesis by RdRp complex” value was “significant inhibition”.
